Measurements: ChEMBL document CHEMBL4689842, “EUbOPEN Chemogenomics Library wave 1” (2021)

Assays:
Format in all cases: toxicity, cell-based
U2OS = test: Incucyte cell viability with U2OS; conditions: human, 10 µM, compound concentration 10 uM
Fibroblast = test: Incucyte cell viability with human fibroblast; conditions: 10 µM, compound concentration 10 uM
HEK-293T = test: Incucyte cell viability with HEK293T; conditions: human, 10 µM, compound concentration 10 uM
[1] = 0 h, replicate number 1, timepoint 0 hours
[2] = 6 h, replicate number 1, timepoint 6 hours
[3] = 6 h, replicate number 2, timepoint 6 hours
[4] = 12 h, replicate number 1, timepoint 12 hours
[5] = 12 h, replicate number 2, timepoint 12 hours
[6] = 18 h, replicate number 1, timepoint 18 hours
[7] = 18 h, replicate number 2, timepoint 18 hours
[8] = 24 h, replicate number 1, timepoint 24 hours
[9] = 24 h, replicate number 2, timepoint 24 hours
[10] = 0 h, replicate number 2, timepoint 0 hours
Also: filed as whole numbers so only -1 and 0 and 1 occur.

COc1cc(-c2cn([C@H]3CCc4c(F)cccc4N(CC(F)(F)F)C3=O)nn2)ccc1-n1cnc(C)c1
Growth Rate (U2OS; [1]): 0
Growth Rate (U2OS; [2]): 0
Growth Rate (U2OS; [3]): 1
Growth Rate (U2OS; [4]): 0
Growth Rate (U2OS; [5]): 1
Growth Rate (U2OS; [6]): 0
Growth Rate (U2OS; [7]): 1
Growth Rate (U2OS; [8]): 0
Growth Rate (U2OS; [9]): 1
Growth Rate (Fibroblast; [1]): 0
Growth Rate (Fibroblast; [2]): 0
Growth Rate (Fibroblast; [4]): 1
Growth Rate (Fibroblast; [5]): 0
Growth Rate (Fibroblast; [6]): 1
Growth Rate (Fibroblast; [7]): 0
Growth Rate (Fibroblast; [8]): 1
Growth Rate (Fibroblast; [9]): 0
Growth Rate (HEK-293T; [1]): 0
Growth Rate (HEK-293T; [10]): 1
Growth Rate (HEK-293T; [2]): 0
Growth Rate (HEK-293T; [4]): 0
Growth Rate (HEK-293T; [6]): 1
Growth Rate (HEK-293T; [8]): 1
Growth Rate (HEK-293T; [9]): 0

O=c1nc(-c2ccccn2)sc2ccccc12 [BTZO-1]
Growth Rate (U2OS; [1]): 0
Growth Rate (U2OS; [2]): 1
Growth Rate (U2OS; [4]): 0
Growth Rate (U2OS; [5]): 1
Growth Rate (U2OS; [6]): 1
Growth Rate (U2OS; [7]): 0
Growth Rate (U2OS; [8]): 1
Growth Rate (U2OS; [9]): 0
Growth Rate (Fibroblast; [1]): 1
Growth Rate (Fibroblast; [10]): 0
Growth Rate (Fibroblast; [2]): 0
Growth Rate (Fibroblast; [3]): 1
Growth Rate (Fibroblast; [4]): 0
Growth Rate (Fibroblast; [5]): 1
Growth Rate (Fibroblast; [6]): 0
Growth Rate (Fibroblast; [7]): 1
Growth Rate (Fibroblast; [8]): 0
Growth Rate (Fibroblast; [9]): 1
Growth Rate (HEK-293T; [1]): 0
Growth Rate (HEK-293T; [10]): 1
Growth Rate (HEK-293T; [2]): 1
Growth Rate (HEK-293T; [4]): 1
Growth Rate (HEK-293T; [6]): 1
Growth Rate (HEK-293T; [8]): 1

C[S+]([O-])c1ccc(-c2nc(-c3ccncc3)c(-c3ccc(F)cc3)[nH]2)cc1 (stereo unspecified) [SB-203580]
Growth Rate (U2OS; [3]): 0
Growth Rate (U2OS; [5]): 1
Growth Rate (U2OS; [6]): 1
Growth Rate (U2OS; [8]): 1
Growth Rate (Fibroblast; [1]): 0
Growth Rate (Fibroblast; [3]): 0
Growth Rate (Fibroblast; [5]): 1
Growth Rate (Fibroblast; [7]): 1
Growth Rate (Fibroblast; [9]): 1
Growth Rate (HEK-293T; [1]): 0
Growth Rate (HEK-293T; [2]): 0
Growth Rate (HEK-293T; [4]): 0
Growth Rate (HEK-293T; [6]): 0
Growth Rate (HEK-293T; [8]): 0

Cc1nc(C2CCN(C(=O)c3ccc(OC(F)(F)F)cc3N)CC2)c2ncc(N3CCN(C)CC3)cc2n1 [BAY-693]
Growth Rate (U2OS; [1]): 0
Growth Rate (U2OS; [2]): 0
Growth Rate (U2OS; [3]): 1
Growth Rate (U2OS; [4]): 0
Growth Rate (U2OS; [5]): 1
Growth Rate (U2OS; [6]): 0
Growth Rate (U2OS; [7]): 1
Growth Rate (U2OS; [8]): 0
Growth Rate (U2OS; [9]): 1
Growth Rate (Fibroblast; [1]): 1
Growth Rate (Fibroblast; [10]): 0
Growth Rate (Fibroblast; [2]): 1
Growth Rate (Fibroblast; [4]): 1
Growth Rate (Fibroblast; [6]): 1
Growth Rate (Fibroblast; [8]): 1
Growth Rate (HEK-293T; [1]): 0
Growth Rate (HEK-293T; [10]): 1
Growth Rate (HEK-293T; [9]): 1

CC1(C)CCC(C)(C)c2cc(C3(c4ccc(C(=O)O)cc4)OCCO3)ccc21
Growth Rate (U2OS; [1]): 0
Growth Rate (U2OS; [3]): 0
Growth Rate (U2OS; [4]): 1
Growth Rate (U2OS; [5]): 0
Growth Rate (U2OS; [6]): 1
Growth Rate (U2OS; [7]): 0
Growth Rate (U2OS; [8]): 1
Growth Rate (Fibroblast; [1]): 0
Growth Rate (Fibroblast; [2]): 1
Growth Rate (Fibroblast; [4]): 1
Growth Rate (Fibroblast; [6]): 1
Growth Rate (Fibroblast; [8]): 1
Growth Rate (HEK-293T; [1]): 0
Growth Rate (HEK-293T; [3]): 0
Growth Rate (HEK-293T; [4]): 1
Growth Rate (HEK-293T; [6]): 1
Growth Rate (HEK-293T; [8]): 1

O=C(/C=C/N1C[C@H]2C[C@@H]1CN2c1ccccn1)c1ccccc1O
Growth Rate (U2OS; [1]): 0
Growth Rate (U2OS; [2]): 0
Growth Rate (U2OS; [4]): 1
Growth Rate (U2OS; [5]): 0
Growth Rate (U2OS; [6]): 0
Growth Rate (U2OS; [8]): 0
Growth Rate (Fibroblast; [10]): 0
Growth Rate (Fibroblast; [2]): 1
Growth Rate (Fibroblast; [4]): 1
Growth Rate (Fibroblast; [6]): 1
Growth Rate (Fibroblast; [8]): 1
Growth Rate (HEK-293T; [1]): 0
Growth Rate (HEK-293T; [10]): 1

CN(C)[C@@H]1CCN(c2cc(-c3ccccc3)nc3ccnn23)C1 [(R)-ZINC-3573]
Growth Rate (U2OS; [3]): 0
Growth Rate (U2OS; [4]): 1
Growth Rate (U2OS; [5]): 0
Growth Rate (U2OS; [6]): 0
Growth Rate (U2OS; [7]): 1
Growth Rate (U2OS; [8]): 1
Growth Rate (Fibroblast; [1]): 0
Growth Rate (Fibroblast; [2]): 0
Growth Rate (Fibroblast; [4]): 1
Growth Rate (Fibroblast; [6]): 1
Growth Rate (Fibroblast; [7]): 0
Growth Rate (Fibroblast; [8]): 1
Growth Rate (HEK-293T; [1]): 0
Growth Rate (HEK-293T; [2]): 1
Growth Rate (HEK-293T; [4]): 1
Growth Rate (HEK-293T; [6]): 1
Growth Rate (HEK-293T; [8]): 1
Growth Rate (HEK-293T; [9]): 0

Br.Br.N=C(N)SCCc1c[nH]cn1
Growth Rate (U2OS; [1]): 0
Growth Rate (U2OS; [2]): 0
Growth Rate (U2OS; [4]): 1
Growth Rate (U2OS; [5]): 0
Growth Rate (U2OS; [6]): 0
Growth Rate (U2OS; [7]): 1
Growth Rate (U2OS; [8]): 0
Growth Rate (Fibroblast; [1]): 0
Growth Rate (Fibroblast; [2]): 0
Growth Rate (Fibroblast; [4]): 0
Growth Rate (Fibroblast; [6]): 1
Growth Rate (Fibroblast; [7]): 0
Growth Rate (Fibroblast; [8]): 1
Growth Rate (Fibroblast; [9]): 0
Growth Rate (HEK-293T; [1]): 1
Growth Rate (HEK-293T; [10]): 0
Growth Rate (HEK-293T; [2]): 1
Growth Rate (HEK-293T; [4]): 1
Growth Rate (HEK-293T; [6]): 1
Growth Rate (HEK-293T; [7]): 0
Growth Rate (HEK-293T; [8]): 1
Growth Rate (HEK-293T; [9]): 0

O=C(O)[C@@H]1[C@@H](Cn2nnc3ccccc3c2=O)CC[C@H]1C(=O)c1ccc(OCCC2CCOCC2)cc1 [BAY-694]
Growth Rate (U2OS; [1]): 0
Growth Rate (U2OS; [2]): 0
Growth Rate (U2OS; [4]): 1
Growth Rate (U2OS; [6]): 0
Growth Rate (U2OS; [8]): 1
Growth Rate (U2OS; [9]): 0
Growth Rate (Fibroblast; [1]): 0
Growth Rate (Fibroblast; [10]): 1
Growth Rate (Fibroblast; [2]): 0
Growth Rate (Fibroblast; [4]): 1
Growth Rate (Fibroblast; [5]): 0
Growth Rate (Fibroblast; [6]): 1
Growth Rate (Fibroblast; [7]): 0
Growth Rate (Fibroblast; [8]): 0
Growth Rate (Fibroblast; [9]): 1
Growth Rate (HEK-293T; [1]): 0
Growth Rate (HEK-293T; [10]): 1
Growth Rate (HEK-293T; [2]): 0
Growth Rate (HEK-293T; [3]): 1
Growth Rate (HEK-293T; [5]): 0
Growth Rate (HEK-293T; [6]): 1
Growth Rate (HEK-293T; [8]): 1

COc1ccc(CNC(=O)c2cc(-c3cncc(Cl)c3)cnc2-c2ccccn2)nc1OC [MK-1064]
Growth Rate (U2OS; [1]): 0
Growth Rate (U2OS; [3]): 0
Growth Rate (U2OS; [4]): 1
Growth Rate (U2OS; [6]): 1
Growth Rate (U2OS; [7]): 0
Growth Rate (U2OS; [8]): 1
Growth Rate (Fibroblast; [1]): 0
Growth Rate (Fibroblast; [2]): 0
Growth Rate (Fibroblast; [4]): 0
Growth Rate (Fibroblast; [6]): 1
Growth Rate (Fibroblast; [8]): 0
Growth Rate (Fibroblast; [9]): 1
Growth Rate (HEK-293T; [1]): 0
Growth Rate (HEK-293T; [2]): 0
Growth Rate (HEK-293T; [4]): 1
Growth Rate (HEK-293T; [5]): 0
Growth Rate (HEK-293T; [6]): 0
Growth Rate (HEK-293T; [8]): 1
Growth Rate (HEK-293T; [9]): 0
